Assay results taken from patent publication US20150296790A1, “SILICON-CONTAINING COMPOUND AQUEOUS SOLUTION AND ANTIBACTERIAL/ANTIVIRAL AGENT INCLUDING SAID SOLUTION” (JEX CO., LTD., priority 2012, published 2015).
Values belong to the compound of their own block, whether it stands above or below them.

Assay: Solubility of CD (clarity and stability, visual)
Assay type: physicochemical
Design: key to Solubility of CD: Stability: OK: When the aqueous CD solution did not exhibit the conditions such as presence of precipitates and deposits, the solution was considered as stable; NG: When the aqueous CD solution exhibited the conditions such as presence of precipitates and deposits, the solution was not considered as stable; key to Solubility of CD: Clarity: When the CD aqueous solution was clear, the solution was rated as “OK”; When the solution was not clear, the solution was rated as “NG”
Experimental: “Clarity” in “Solubility of CD” in the tables was determined by sequentially adding the CD and purified water at the respective ratio to a predetermined screw-cap bottle and stirring the mixture in the sealed bottle on a shaker to prepare the respective aqueous CD solution, which was then visually evaluated for clarity immediately after the preparation. When the CD aqueous solution was clear, the solution was rated as “OK”. When the solution was not clear, the solution was rated as “NG”. “Stability” in “Solubility of CD” in the tables was determined by allowing the respective aqueous CD solution after preparation to stand at ambient temperature for a predetermined period and then visually evaluating the conditions (such as presence of precipitates and deposits) of the solution.

[1] = Ratio of CD Alone 1 w/w % in purified water
[2] = Ratio of CD Alone 2-6 w/w % in purified water
[3] = Ratio of CD Alone 7 w/w % in purified water
[4] = Ratio of CD Alone 8-10 w/w % in purified water
[5] = Ratio of CD Alone 2-10 w/w % in purified water
[6] = Ratio of CD Alone 2 w/w % in purified water
[7] = Ratio of CD Alone 3 w/w % in purified water
[8] = Ratio of CD Alone 4-5 w/w % in purified water
[9] = Ratio of CD Alone 6 w/w % in purified water
[10] = Ratio of CD Alone 7-9 w/w % in purified water
[11] = Ratio of CD Alone 10 w/w % in purified water
[12] = Ratio of CD Alone 15 w/w % in purified water
[13] = Ratio of CD Alone 20 w/w % in purified water
[14] = Ratio of CD Alone 25 w/w % in purified water

SMILES: OC[C@H]1O[C@@H]2O[C@H]3[C@H](O)[C@@H](O)[C@@H](O[C@H]4[C@H](O)[C@@H](O)[C@@H](O[C@H]5[C@H](O)[C@@H](O)[C@@H](O[C@H]6[C@H](O)[C@@H](O)[C@@H](O[C@H]7[C@H](O)[C@@H](O)[C@@H](O[C@H]1[C@H](O)[C@H]2O)O[C@@H]7CO)O[C@@H]6CO)O[C@@H]5CO)O[C@@H]4CO)O[C@@H]3CO [α, α-cyclodextrin]
Solubility of CD: Clarity [1]: OK
Solubility of CD: Stability [1]: OK
Solubility of CD: Clarity [2]: OK
Solubility of CD: Stability [2]: OK
Solubility of CD: Clarity [3]: OK
Solubility of CD: Stability [3]: OK
Solubility of CD: Clarity [4]: NG
Solubility of CD: Stability [4]: NG

Solubility of CD: Clarity [1]: OK
Solubility of CD: Stability [1]: OK
Solubility of CD: Clarity [5]: NG
Solubility of CD: Stability [5]: NG
SMILES: OC[C@H]1O[C@@H]2O[C@H]3[C@H](O)[C@@H](O)[C@@H](O[C@H]4[C@H](O)[C@@H](O)[C@@H](O[C@H]5[C@H](O)[C@@H](O)[C@@H](O[C@H]6[C@H](O)[C@@H](O)[C@@H](O[C@H]7[C@H](O)[C@@H](O)[C@@H](O[C@H]8[C@H](O)[C@@H](O)[C@@H](O[C@H]1[C@H](O)[C@H]2O)O[C@@H]8CO)O[C@@H]7CO)O[C@@H]6CO)O[C@@H]5CO)O[C@@H]4CO)O[C@@H]3CO [β, β-cyclodextrin]

Solubility of CD: Clarity [1]: OK
Solubility of CD: Stability [1]: OK
Solubility of CD: Clarity [6]: OK
Solubility of CD: Stability [6]: OK
Solubility of CD: Clarity [7]: OK
Solubility of CD: Stability [7]: OK
Solubility of CD: Clarity [8]: OK
Solubility of CD: Stability [8]: OK
Solubility of CD: Clarity [9]: OK
Solubility of CD: Stability [9]: OK
Solubility of CD: Clarity [10]: OK
Solubility of CD: Stability [10]: OK
Solubility of CD: Clarity [11]: OK
Solubility of CD: Stability [11]: OK
Solubility of CD: Clarity [12]: NG
Solubility of CD: Stability [12]: OK
Solubility of CD: Clarity [13]: NG
Solubility of CD: Stability [13]: OK
Solubility of CD: Clarity [14]: NG
Solubility of CD: Stability [14]: NG
SMILES: OC[C@H]1O[C@@H]2O[C@H]3[C@H](O)[C@@H](O)[C@@H](O[C@H]4[C@H](O)[C@@H](O)[C@@H](O[C@H]5[C@H](O)[C@@H](O)[C@@H](O[C@H]6[C@H](O)[C@@H](O)[C@@H](O[C@H]7[C@H](O)[C@@H](O)[C@@H](O[C@H]8[C@H](O)[C@@H](O)[C@@H](O[C@H]9[C@H](O)[C@@H](O)[C@@H](O[C@H]1[C@H](O)[C@H]2O)O[C@@H]9CO)O[C@@H]8CO)O[C@@H]7CO)O[C@@H]6CO)O[C@@H]5CO)O[C@@H]4CO)O[C@@H]3CO [γ, γ-cyclodextrin]
